One block for each compound: values may come before it.
How the values were obtained:
[1] = cited from earlier work
[2] = cited from earlier work; remark: listed apart in the source
[3] = cited from earlier work; remark: listed apart in the source
[4] = target: wild-type TTR in human plasma (Homo sapiens, UniProt P02766); assay: Ex vivo competitive binding assay using a fluorogenic probe in human plasma; details: for binding to TTR in human plasma (probe fluorescence intensity), in words: 6 h of incubation, Figure 3 / Figures S2–S4

SMILES: O=C(O)c1ccc2nc(-c3cc(Cl)cc(Cl)c3)oc2c1 [Compound 1, Tafamidis]
aqueous solubility pH 6.8 [1]: >100 μM
hepatic microsome stability in rats [2]: 38.7 mL/min/kg
PAMPA permeability [3]: >50 ×10^–6 cm/s

SMILES: CCc1oc2ccc(Cl)c(Cl)c2c1C(=O)c1cc(I)c(O)c(I)c1 [Compound 18, (4,5-Dichloro-2-ethylbenzofuran-3-yl)(4-hydroxy-3,5-diiodophenyl)methanone]
binding to TTR in human plasma (probe fluorescence intensity), in words [4]: remarkably reduced compared to that of 7

SMILES: CCc1oc2c(Cl)c(Cl)ccc2c1C(=O)c1cc(I)c(O)c(I)c1 [Compound 19, (6,7-Dichloro-2-ethylbenzofuran-3-yl)(4-hydroxy-3,5-diiodophenyl)methanone]
binding to TTR in human plasma (probe fluorescence intensity), in words [4]: remarkably reduced compared to that of 7

More lines, now with the values ahead:

fluorescence intensity of the probe relative to the control (DMSO) ([4]; compound 20 μM, human plasma with 5 μM TTR, Figure 2): approximately 30%
SMILES: CCc1oc2ccccc2c1C(=O)c1cc(I)c(O)c(I)c1 [Compound 3, benziodarone]

binding to TTR in human plasma (probe fluorescence intensity), in words [4]: weaker binding compared to 3
SMILES: CCc1sc2ccccc2c1C(=O)c1cc(I)c(O)c(I)c1 [Compound 14, (2-Ethylbenzo[b]thien-3-yl)(4-hydroxy-3,5-diiodophenyl)methanone]

Source: article PMC11089511 (Journal of Medicinal Chemistry, 2024)
